# Data reported in ChEMBL document CHEMBL3714712, “Thieno [2,3-c]pyrazoles for use as potassium channel inhibitors” (2013).
# Target: T1, Kir3.1/Kir3.4 (Rattus norvegicus, UniProt P48548+P63251)
# T1 sequence (P63251 whole entry): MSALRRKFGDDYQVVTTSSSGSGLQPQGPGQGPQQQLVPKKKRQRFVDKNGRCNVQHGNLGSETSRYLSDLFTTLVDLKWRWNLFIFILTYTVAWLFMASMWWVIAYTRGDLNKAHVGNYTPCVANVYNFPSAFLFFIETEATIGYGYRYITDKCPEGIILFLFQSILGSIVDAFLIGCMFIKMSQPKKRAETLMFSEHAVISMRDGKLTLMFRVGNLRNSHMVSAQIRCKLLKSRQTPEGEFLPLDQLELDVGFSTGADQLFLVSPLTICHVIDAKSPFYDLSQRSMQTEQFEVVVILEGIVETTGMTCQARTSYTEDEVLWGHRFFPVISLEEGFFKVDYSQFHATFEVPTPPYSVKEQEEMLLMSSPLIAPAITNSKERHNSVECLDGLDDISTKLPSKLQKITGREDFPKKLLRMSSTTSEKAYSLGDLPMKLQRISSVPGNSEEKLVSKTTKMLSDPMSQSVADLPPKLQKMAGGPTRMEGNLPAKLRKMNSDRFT
# T1 sequence (P48548 whole entry): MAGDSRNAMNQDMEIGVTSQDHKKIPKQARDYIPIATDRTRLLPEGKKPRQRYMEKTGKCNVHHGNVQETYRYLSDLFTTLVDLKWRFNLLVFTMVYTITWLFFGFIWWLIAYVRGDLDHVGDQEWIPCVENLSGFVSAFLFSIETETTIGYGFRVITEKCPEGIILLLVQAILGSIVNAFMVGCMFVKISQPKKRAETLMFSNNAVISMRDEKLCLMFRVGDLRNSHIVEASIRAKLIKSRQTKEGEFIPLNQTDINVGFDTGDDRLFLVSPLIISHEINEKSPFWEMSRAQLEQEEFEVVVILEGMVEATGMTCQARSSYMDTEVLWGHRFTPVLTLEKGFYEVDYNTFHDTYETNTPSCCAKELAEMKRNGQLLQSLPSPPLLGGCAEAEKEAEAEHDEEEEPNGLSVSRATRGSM
# Test: Inhibition of rat Kir3.1/Kir3.4 expressed in HEK293 cells assessed as reduction in depolarizing voltage step-induced recombinant G-protein activated inward rectifier current by whole cell patch clamp assay
# Assay type: cell-based
row,SMILES,IC50
1,CS(=O)(=O)n1nc(N2CC3CC2CC3OCCN2CCCC2)c2c(-c3ccc(F)cc3)csc21 (stereo not given),< 500 nM
2,CC(C)NC1CC2CCC(C1)N2c1n[nH]c2scc(-c3ccccc3)c12 (stereo not given),500 nM
3,c1ccc(-c2csc3[nH]nc(N4C5CCC4CC(NC4CCC4)C5)c23)cc1 (stereo not given),< 500 nM
4,CNC(=O)c1sc2[nH]nc(N3CCC(COCCN4CCCC4)CC3)c2c1-c1ccccc1,< 500 nM
5,c1ccc(-c2csc3[nH]nc(N4CCCC(COCCN5CCCC5)C4)c23)cc1 (stereo not given),< 500 nM
6,c1ccc(-c2csc3[nH]nc(N4CC5CC4CC5OCCN4CCCC4)c23)cc1 (stereo not given),< 500 nM
7,CC(=O)n1nc(N2CCC(COCCN3CCCC3)C2)c2c(-c3ccccc3)csc21 (stereo not given),< 500 nM
8,CC(=O)n1nc(N2CCCC(COCCN3CCCC3)C2)c2c(-c3ccccc3)csc21 (stereo not given),< 500 nM
9,CC(=O)n1nc(N2C3CCC2CC(OCCN2CCCC2)C3)c2c(-c3ccccc3)csc21 (stereo not given),< 500 nM
10,c1ccc(-c2csc3[nH]nc(N4C5CCC4CC(COCCN4CCCC4)C5)c23)cc1 (stereo not given),< 500 nM
11,c1ccc(-c2csc3[nH]nc(N4CCC(COCCN5CCCC5)C4)c23)cc1 (stereo not given),< 500 nM
12,CC(=O)n1nc(N2CCC(COCCN3CCCC3)CC2)c2c(-c3ccccc3)csc21,< 500 nM
13,c1ccc(-c2csc3[nH]nc(N4C5CCC4CC(N4CCC4)C5)c23)cc1 (stereo not given),500 nM
14,c1ccc(-c2csc3[nH]nc(N4C5CCC4CC(OCCN4CCCC4)C5)c23)cc1 (stereo not given),< 500 nM

# Further lines, results first:
row,IC50,SMILES
1,< 500 nM,CS(=O)(=O)n1nc(N2CCC(COCCN3CCCC3)CC2)c2c(-c3ccccc3)csc21
2,< 500 nM,CC(=O)n1nc(N2CC3CC2CC3OCCN2CCCC2)c2c(-c3ccccc3)csc21 (stereo not given)
3,< 500 nM,CC(=O)n1nc(N2CC3CC2CC3OCCN2CCCC2)c2c(-c3ccc(F)cc3)csc21 (stereo not given)
4,< 500 nM,Cn1nc(N2CCC(COCCN3CCCC3)CC2)c2c(-c3ccccc3)csc21
5,< 500 nM,c1ccc(-c2csc3[nH]nc(N4CCC(COCCN5CCCC5)CC4)c23)cc1
6,500 nM,CN(C)C(=O)c1sc2[nH]nc(N3CCC(COCCN4CCCC4)CC3)c2c1-c1ccccc1
7,< 500 nM,CC(C)NC(=O)c1sc2[nH]nc(N3CCC(COCCN4CCCC4)CC3)c2c1-c1ccccc1
8,500 nM,CN(C)C(=O)c1sc2c(c(N3CCC(COCCN4CCCC4)CC3)nn2C)c1-c1ccccc1
9,< 500 nM,Brc1sc2[nH]nc(N3CC4CC3CC4OCCN3CCCC3)c2c1-c1ccccc1 (stereo not given)
10,< 500 nM,Fc1ccc(-c2csc3[nH]nc(N4CC5CC4CC5OCCN4CCCC4)c23)cc1 (stereo not given)
11,< 500 nM,N#Cc1sc2[nH]nc(N3CCC(COCCN4CCCC4)CC3)c2c1-c1ccccc1
